Assay [1] deals with HSJD-RBT-7 retinoblastoma cells. The assay can be described thus: cells. The format is cell-based. The following applies: Homo sapiens.
Assay [2] relates to Y79 retinoblastoma cells. The assay is described as follows: cells. The format is cell-based.
In assay [3] the test system is HSJD-RBVS-10 retinoblastoma cells. The assay can be described thus: cells. The assay is classed as cell-based. To be noted: Homo sapiens.
The subject of assay [4] is HSJD-RBT-5 retinoblastoma cells. The assay can be described thus: cells. The assay is classed as cell-based. The following applies: Homo sapiens.
The test system of assay [5] is retinoblastoma cells. The format is cell-based.
Assay [6] relates to E1a. The assay is described as follows: Immunoblot of E1a / E2F-1 in VCN-01-infected Y79 cells with further chemotherapeutics. The format is cell-based. The following applies: for expression of VCN-01 proteins (E1a): VCN-01 50 MOI, drug added at 24 h, lysis at 48 h (FIG. 7); for expression of E2F-1 and E1A: Y79 cells pre-exposed to VCN-01 (FIG. 13H). The procedure: 2 million Y79 retinoblastoma cells were infected with 50 MOIs of VCN-01. […] Etoposide is topoisomerase 2 inhibitor.
In all experiments, 6-well culture plates containing 2×10^6 cells were used. […] The experiments were controlled by adding culture medium instead of the second treatment. […] The analyses were expanded to other chemotherapeutic agents including hydroxyurea ([…]), etoposide (2 μM), irinotecan (10 μM) or SN-38 (1 μM).
Near-infrared labeled secondary antibodies (Odyssey CLx, LI-COR Inc. Bad Homburg, Germany) were used for detection.
On the technique in general: A western blot detects proteins with antibodies after separation by electrophoresis.

In assay [7] the test system is Y79 tumors. The format is in vivo, mouse. The following applies: systemic drug after intratumoral VCN-01 3×10E^9 vp/tumor; 5 or 15 days (FIGS. 2A-B).
Assay [8] concerns Y79 cells and primary retinoblastoma cultures. The format is cell-based.
Assay [9] has as its system HSJD-NB-005 neuroblastoma. The assay can be described thus: Antitumor activity in neuroblastoma PDX HSJD-NB-005. The format is in vivo, mouse. To be noted: single treatment (FIG. 24D,F). As to the method:
PDX of neuroblastoma (pediatric solid tumor) were implanted subcutaneously into athymic nude mice. Tumor model was HSJD-NB-005. Upon engraftment (tumor volumes ranging 100-500 mm^3), treatments were started. The activity of topotecan vs. irinotecan in combination with VCN-01 was evaluated. The following groups of mice were included in the study, with an n of 6 tumors per group: • Group 1: no treatment • Group 2: topotecan i.p. at 0.6 mg/kg, Day 1-5 • Group 3: irinotecan i.p. at 10 mg/kg, Day 1-5 • Group 4: VCN-01 i.t at 3E9 vp/tumor, Day 1 • Group 5: VCN-01 i.t at 3E9 vp/tumor, Day 1 (morning)+topotecan i.p. at 0.6 mg/kg, Day 1-5 • Group 6: VCN-01 i.t at 3E9 vp/tumor, Day 1 (morning)+irinotecan i.p. at 10 mg/kg, Day 1-5
Antitumor activity in extracranial pediatric solid tumors. 5-10 mm^3 fresh fragments of Ewing sarcoma or neuroblastoma PDX were implanted in both flanks of mice. Upon s.c. engraftment (tumor volume 150-200 mm^3), mice received topotecan (0.6 mg/kg, i.p., days 1-5), VCN-01 (3×10^9 vp in 20 µL vehicle, intratumoral, day 1), or the combination. In two additional groups, an alternative topoisomerase 1 inhibitor, irinotecan (10 mg/kg, i.p., on days 1-5) we used in place of topotecan. Upon completion of treatments, tumor volumes were followed until endpoint (1500 mm^3), or until day 80.

Setting [10] is: read-out: IC50, Melphalan single agent.
The mark [11] stands for this setting: read-out: IC50, Melphalan with VCN-01 (10 MOI).

Like-named read-outs stand apart in the source and are kept apart here.

We go through five compounds from patent publication US20260335388A1, “COMBINATION THERAPIES WITH ONCOLYTIC ADENOVIRUS AND TOPOISOMERASE I INHIBITORS OR PRODRUGS THEREOF” (priority 2022, published 2026).

Usually IC50 stands for the concentration at which inhibition is half-maximal. With `N[C@@H](Cc1ccc(N(CCCl)CCCl)cc1)C(=O)O` [Melphalan, melphalan], the IC50 was 1420 nM in [1] (setting [10]); 8480 nM in assay [1] (setting [11]); 3250 nM in assay [2] (setting [10]); 5830 nM in [2] (setting [11]); 241 nM in assay [3] (setting [10]); 2020 nM in assay [3] (setting [11]). Further, the figures for the IC50 in assay [4] (setting [10]) and in [4] (setting [11]) were 478 nM and 636 nM, respectively. The “cell sensitivity to drug after VCN-01 infection” value in assay [5] is “decreased cell sensitivity”.

Regarding `COc1cc([C@@H]2c3cc4c(cc3[C@@H](O[C@@H]3O[C@@H]5CO[C@@H](C)O[C@H]5[C@H](O)[C@H]3O)[C@H]3COC(=O)[C@H]23)OCO4)cc(OC)c1O` [etoposide], in assay [6], the “expression of VCN-01 proteins (E1a)” value is recorded as “does not induce the same effect”; the “expression of E2F-1 and E1A” value is listed as “did not modify the levels of these proteins”.

Take `NC(=O)NO` [hydroxyurea]: the “VCN-01 genome content in tumors” value in [7] is listed as “the enhancement of VCN-01 replication in vivo appears to be specific to topotecan”. The “transgene expression, virus first” value in [8] (cells pre-infected with AdTLRGDK (FIG. 18E, FIG. 19A)) is on record as “increased transgene expression”. Also, the “viral transduction, drug first” value in assay [8] (drug exposure before viral infection (FIG. 18E)) is given as “did not enhance viral transduction”. The “expression of E2F-1 and E1A” value in [6] was “did not modify the levels of these proteins”.

`CCc1c2c(nc3ccc(OC(=O)N4CCC(N5CCCCC5)CC4)cc13)-c1cc3c(c(=O)n1C2)COC(=O)[C@]3(O)CC` [irinotecan]: the “response of xenograft to single treatment” value in assay [9] was “highly resistant”. Also, the “expression of VCN-01 proteins (E1a)” value in assay [6] is “does not work in vitro”.

Regarding SN-38, in [6], the “expression of VCN-01 proteins (E1a)” value was “increases expression of VCN-01 proteins”; the “expression of E2F-1 and E1A” value is “increased the expression of E2F-1 and E1A similarly to topotecan”.
